The text below walks through data of patent US20230096602A1, “TETRAHYDROCYCLOPENTA[B]INDOLE COMPOUNDS FOR TREATMENT OF RENAL DISEASE” (Eirgen Pharma Ltd., priority 2020, published 2023).

Bounds are passed on as bounds.

Series [1] relates to orchidectomized (ORX) rats. The series is described as follows: Testosterone induced prostate and seminal vesicle growth in delayed ORX rat model. Format: in vivo. The settings on record: for seminal vesicle wet weights Abs(Dif)-LSD / prostate weights Abs(Dif)-LSD: Dunnett. From the text: (§1) Orchidectomized (ORX) and sham-operated Wistar male rats were used (orchidectomized at 8 weeks of age and allowed to waste for 4 weeks). […] Rats were randomized and placed into treatment groups (n=6) based on body weight. Route of administration for all groups except testosterone enanthate (TE was given sub-cutaneously) was oral. At the end of 2 weeks of daily rats were euthanized, weighed & tissue harvested. Levator ani, prostates, and seminal vesicles were collected from each animal. Results are plotted as means±SE.

For a further series, the system named is ER, GR, PR MR. The series is described as follows: Binding to other nuclear hormone receptors. The settings on record: selectivity.
In series [2] the test system is orchidectomized (ORX) rats. The series is described as follows: Levator ani muscle in delayed ORX rat model. The series is classed as in vivo. The settings on record: for levator ani W/BW Mean: delayed ORX rat. From the text:
Results are plotted as means±SE.
Following the androgen deficiency in the ORX model, the Levator ani- and bulbocavernous muscle weights decreased in size.

Series [3] concerns orchidectomized (ORX) rats. The series is described as follows: Bone effects in osteopenic ORX rat model. The settings on record: in vivo.
A further series relates to rat uterus. The series is described as follows: Rat uterine risk. The series is classed as in vivo.
The subject of series [4] is orchidectomized (ORX) rats. The series is described as follows: Prostate and seminal vesicle weight in ORX rat model.
Text: as §1

Series [5] in a line: Margin of safety (AUC), dog. Format: in vivo.
Series [6] is described as follows: Margin of safety (AUC), cat as printed. Format: in vivo. The settings on record: cat (so in the source).
The test system of another series is LnCAP cells. The series is described as follows: LnCAP gene expression. The settings on record: CLUSTERIN
Format: cell-based, human.

The subject of the next series is dog prostate. The series is described as follows: Dog toxicology: prostate weight and atrophy. The series is classed as in vivo.
Series [7] deals with healthy subjects. The series is described as follows: Study GPBA QTcF concentration-response analysis. The series is classed as in vivo, human. The settings on record: concentrations found with doses of 250 mg or greater. The method, then:
At TT701 concentrations found with doses of 250 mg or greater, the mean QTcF prolongation was greater than 10 msec. The risk for clinically significant QT prolongation at doses <250 mg can be excluded.

In series [8] the test system is healthy subjects. The series is described as follows: Study GPBC multiple-dose 28 days. The series is classed as in vivo, human. The settings on record: 1 mg to 75 mg daily dose for 28 days.
In series [9] the test system is patients with ED who had an incomplete response to tadalafil. The series is described as follows: Study GPEC phase 2, 12 weeks. Format: in vivo, human. The settings on record: for Change in Fat Mass (%) (week 12) / Change in Lean Body Mass (%) (week 12): 5 mg. From the text: The Phase 2 Study for ED also included exploratory measures for lower extremity muscle strength and power, LBM and fat mass.

Series [10] concerns male subjects with LUTS secondary to BPH. The series is described as follows: Study SAR-202 phase 2, 16 weeks. Format: in vivo, human.
Series [11] deals with patients with androgen deficiency. The series is described as follows: Clinical studies in patients with androgen deficiency. The series is classed as in vivo, human. The settings on record: any dose level (up to 75 mg doses). From the text: The exact effect of this decrease in testosterone levels on androgen related anabolic and prostate effects is not known, but may be dependent on the base levels of testosterone.

Series [12] can be described thus: Human PK, single and repeated doses. The series is classed as in vivo. The source says:
The human pharmacokinetics (PK) of OPK-88004 was investigated following single and repeated doses. Following tmax, OPK-88004 concentrations appear to decline in a biexponential fashion characterized by a short distribution phase and a long terminal phase. Exposure appears to increase approximately dose proportionally in the clinical dosing range. Steady state was achieved within 28 days of dosing. […] These therapeutic benefits of more controlled exposure may result in improved LBM and physical/muscle strength preservation, physical function improvement and muscle wasting prevention. OPK-88004 bioexponential PK profile is important for the optimization of side effect benefit/risk ratio in special populations including dialysis patients.

A further series concerns clinical study subjects. The series is described as follows: Clinical safety assessment across studies. The series is classed as in vivo, human. The settings on record: phase 2 study.
Series [13] has as its system healthy subjects. The settings on record: healthy volunteers, any time point or dose; data of WO 2016040234; cited from earlier work.
The mark [14] stands for this setting: ORX + TE, 1 mg/kg/d + Example 1, 3 mg/kg/d vs ORX + TE.
Where [15] appears, read: ORX + TE, 1 mg/kg/d + Example 1, 10 mg/kg/d vs ORX + TE.
The mark [16] stands for this setting: ORX + TE, 1 mg/kg/d + Example 1, 30 mg/kg/d vs ORX + TE.
The mark [17] stands for this setting: baseline testosterone <340 ng/dL.
[18] abbreviates: baseline testosterone ≥340 ng/dL.

Take `CCCCCCC(=O)O[C@H]1CC[C@H]2[C@@H]3CCC4=CC(=O)CC[C@]4(C)[C@H]3CC[C@]12C` [Testosterone Enanthate, reference compound]: the “prostate weight and seminal vesical weight” value in series [1] (orchidectomized rats, 1 mg/k/d alone, 2 weeks) is given as “increase”.

For the molecule `CC(C)OC(=O)N[C@H]1Cc2c(n(Cc3ccccn3)c3ccc(C#N)cc23)C1` [compound of Formula II, (S)-(7-cyano-4-pyridin-2-ylmethyl-1,2,3,4-tetrahydro-cyclopenta[b]indol-2-yl)-carbamic acid isopropyl ester], the “binding affinity for hAR compared to other nuclear hormone receptors” value with ER, GR, PR MR is reported as above 500 fold. Besides, the “levator ani W/BW Mean” value in [2] (8 weeks, dose 1) was determined as 0.2749 mg/g; in series [2] (8 weeks, dose 3), 0.2575 mg/g; in series [2] (8 weeks, dose 10) it was 0.3237 mg/g; in [2] (8 weeks, dose 20), 0.325 mg/g. For the same molecule, the “Muscle LA ED mg/kg” value in series [2] (rat) is reported as 3 mpk. Also, in series [3], the “Bone Eff (BM)” value came out at 2 mpk. The molecule further came in with a Rat uterine risk with rat uterus of 20 mpk. For the same molecule, the “prostate or seminal vesical weights” value in [4] (delayed ORX rats, 2 or 8 weeks, increasing doses up to 20-30 mg/kg) is reported as “no effect”. For the same molecule, in series [4] (orchidectomized rats, 30 mg/kg, highest dose examined), the “changes in the prostate” value is listed as “did not induce changes”. Also, the “Rat SV/Prost risk mgs/kg” value in series [4] (rat) was above 30 mpk. Also, the results for the “MOS (AUC)” value in [5] and in series [6] were 28 X and 71 X, respectively. Also, in the series with LnCAP cells, the EC50 (in general, the concentration giving half of the maximal effect) was above 100 nM. Further, the “decreases of prostate weight” value in the series with dog prostate (dogs, by 3 months (so in the source)) is 60-75%. For the same molecule, the “progressive decrease in prostate size” value with dog prostate (normal dogs, six-month treatment period) stood at 60%. The “seminal vesicle wet weights Abs(Dif)-LSD” value in series [1] (ORX + Example 1, 10 mg/kg/d (no TE) vs ORX + TE) is reported as 1.411; in series [1] (setting [14]) it was −0.34; in [1] (setting [15]), 0.078; in [1] (setting [16]), 0.536. Also, the figures for the “prostate weights Abs(Dif)-LSD” value in [1] (setting [14]), in series [1] (setting [15]) and in series [1] (setting [16]) were −0.11, 0.036 and 0.025, respectively. In series [1] (TE 1 mg/kg/d + 3, 10 and 30 mg/kg/d, 2 weeks, compared to TE alone), the “prostate weight and seminal vesical weights normalized to body weight” value is “decreasing”. The “mean QTcF prolongation” value with healthy subjects [7] was “greater than 10 msec”. Moreover, in the series on healthy subjects [8], the “PSA test, effect on the prostate” value was “neutral to negative effect”. Besides, the “Change in Fat Mass (%) (week 12)” value in [9] (setting [17]) was −1.85%; in [9] (setting [18]) it was −0.95%. Further, the “Change in Lean Body Mass (%) (week 12)” value in series [9] (setting [17]) is 1.60%; in [9] (setting [18]) it was 0.88%. Besides, the Hematocrit entry in series [9] (12 weeks (FIG. 11)) was “no change”. The “Change in Fat mass (kg) (week 16)” value in [10] (15 mg, 16 weeks) was -1.47 kg; in series [10] (25 mg, 16 weeks), -1.49 kg. Besides, the “Change in Lean Body Mass (kg) (week 16)” value in series [10] (25 mg, 16 weeks, listed as OPK-88008) is 1.96 kg. For the same molecule, the “Change in Prostate Specific Antigen (week 16 to baseline)” value in series [10] (25 mg, listed as OPK-88008) is reported as −15.44 (p = 0.006). Moreover, in [11], the PSA result is reported as “No increases”. In series [12] (in vivo), the “Accumulation with multiple dosing” value is reported as “up to 2.5 fold”. For the same molecule, in series [12] (repeated dosing), the “time to steady state” value is reported as at most 28 days. Also, the entries for the “transient abnormal AST or ALT level” value in the series with clinical study subjects (one subject) and in the series on clinical study subjects (two subjects) were above 3 ×ULN and above 2 ×ULN, respectively. In addition, the “prostate specific antigen (PSA) levels, changes from baseline vs placebo” value in the series with healthy subjects [13] is reported as “no significant changes”.

B1: PTH: PTH 10 comparator group in the delayed ORX rat model, Table 7 (peptide, UniProt P01270 32-115, looked up)
Parathyroid hormone: SVSEIQLMHNLGKHLNSMERVEWLRKKLQDVHNFVALGAPLAPRDAGSQRPRKKEDNVLVESHEKSLGEADKADVNVLTKAKSQ
modifications: Parathyroid hormone
B1: in series [2] (PTH 10 (head: ug/kg/d)), the “levator ani W/BW Mean” value amounted to 0.1665 mg/g.
